In ChEMBL document CHEMBL1201862, “PubChem BioAssay data set” (2004):
Activity calls are given as the source filed them. Rule as the data show it, for most assays here: actives have a measured EC50 and inactives only a lower limit.

Key:
[1] = Luminescence Cell-Based Dose Confirmation HTS to Identify Inhibitors of Platelet Dense Granule Release. [Related pubchem assays: 1663 (Primary HTS), 1678 (Summary of Project)]; format: functional
[2] = target: Luciferin 4-monooxygenase (Photinus pyralis, UniProt P08659); experiment: inhibition of purified Photinus pyralis luciferase – biochemical, luminescence, dose response (AID 1891)
[3] = NIH-3T3 fibroblast cytotoxicity, dose response, cytotoxicity control, cell-based, fluorescence, Alamar Blue, secondary assay (AID 2327); format: functional;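 also: NIH-3T3 mouse fibroblasts cultured with fluconazole at 8 µg/mL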
[4] = fluconazole-exposed Candida albicans growth modulators – fluorescence, retest, confirmation (AID 2467); format: functional, cell-based
[5] = target: T1, Calpain-2 catalytic subunit (Sus scrofa, UniProt P43367); experiment: m-calpain protease blockers, concentration series – biochemical, fluorogenic peptide substrate, dose response (AID 1420); format: functional
T1 sequence (P43367 whole entry): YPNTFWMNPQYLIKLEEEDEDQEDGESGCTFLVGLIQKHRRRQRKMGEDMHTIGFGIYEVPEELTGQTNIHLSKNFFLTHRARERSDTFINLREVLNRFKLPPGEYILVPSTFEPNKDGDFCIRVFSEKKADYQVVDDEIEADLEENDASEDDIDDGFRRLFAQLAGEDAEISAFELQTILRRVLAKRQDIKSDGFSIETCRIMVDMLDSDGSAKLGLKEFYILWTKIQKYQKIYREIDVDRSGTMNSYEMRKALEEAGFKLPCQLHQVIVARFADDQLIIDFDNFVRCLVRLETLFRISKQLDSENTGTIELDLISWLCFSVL

BJ [6] = experiment: BJ-TERT-LT-ST fibroblast viability loss – cell-based, RAS-independent, luminescence, dose response (AID 1935); format: functional; conditions: Homo sapiens;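 also: BJ fibroblasts immortalized with TERT plus LT and ST oncogenes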
[7] = DRD fibroblast viability loss – cell-based, non-viral oncogenic, luminescence, dose response (AID 1934); format: functional; conditions: Homo sapiens
BJ [8] = experiment: BJ-TERT fibroblast viability loss – cell-based, RAS-independent, luminescence, dose response (AID 1933); format: functional; conditions: Homo sapiens
BJ [9] = experiment: cells; format: functional, cell-based; conditions: Homo sapiens
[10] = luciferase reporter signal suppression in cells – H4 neuroglioma cells, luminescence, dose response (AID 1990); format: functional, cell-based
[11] = Luminescence Cell-Based Dose Response HTS to Identify Inhibitors of 5'UTR Stem-Loop Driven Prion Protein mRNA Translation in H4 Neuroglioblastoma Cells. [Related pubchem assays: 1827 (Project Summary), 1813 (Primary HTS)]; format: functional
[12] = viability of HCT116 lacking mutant beta-catenin – cell-based, human colon tumor, dose response (AID 1045); format: functional;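 also: HCT116 colon tumor cells with beta catenin knocked out; cells exposed to compound for 60 hours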
[13] = alpha-synuclein stem-loop luciferase translation blockers – H4 neuroglioma cells, luminescence, confirmation (AID 1988); format: functional, cell-based
[14] = viability of PTEN-deleted HCT116 cells – cell-based, HCT116 PTEN knockout, dose response (AID 1047); format: functional;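 also: HCT116 colon tumor cells with PTEN knocked out; cells exposed to compound for 60 hours before readout; potency for loss of cell viability measured by luminescence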
Protein RecA = target: T2, Protein RecA (Mycobacterium tuberculosis, UniProt P9WHJ3); experiment: Fluorescence Cell-Free Homogeneous Dose Retest to Identify Inhibitors of RecA-Intein Splicing Activity. [Related pubchem assays (depositor defined):AID2097, AID2223, AID489010, AID492950]; format: functional
T2 sequence (P9WHJ3 whole entry): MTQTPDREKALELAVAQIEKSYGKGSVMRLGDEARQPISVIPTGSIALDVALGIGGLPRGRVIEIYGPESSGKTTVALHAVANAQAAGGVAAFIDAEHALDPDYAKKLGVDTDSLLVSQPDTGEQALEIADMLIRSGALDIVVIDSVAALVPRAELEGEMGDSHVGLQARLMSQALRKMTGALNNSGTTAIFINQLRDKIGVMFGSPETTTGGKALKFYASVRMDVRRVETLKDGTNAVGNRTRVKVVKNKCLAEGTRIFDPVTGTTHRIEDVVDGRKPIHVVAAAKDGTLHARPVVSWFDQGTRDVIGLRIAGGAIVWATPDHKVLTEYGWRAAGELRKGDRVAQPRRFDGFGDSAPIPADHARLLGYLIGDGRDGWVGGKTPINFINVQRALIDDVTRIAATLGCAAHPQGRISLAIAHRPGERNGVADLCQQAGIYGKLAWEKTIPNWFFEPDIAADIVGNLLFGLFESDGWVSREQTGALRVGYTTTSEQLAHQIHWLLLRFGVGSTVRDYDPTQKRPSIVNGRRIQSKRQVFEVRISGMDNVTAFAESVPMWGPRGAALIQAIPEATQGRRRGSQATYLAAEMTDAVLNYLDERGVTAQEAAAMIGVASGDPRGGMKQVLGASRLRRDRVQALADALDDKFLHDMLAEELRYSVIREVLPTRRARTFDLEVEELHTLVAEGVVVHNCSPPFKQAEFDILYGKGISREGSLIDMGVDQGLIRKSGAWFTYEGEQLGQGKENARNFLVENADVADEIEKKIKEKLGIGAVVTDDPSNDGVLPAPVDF

[15] = target: T3, Replicative DNA helicase DnaB (Mycobacterium tuberculosis, UniProt P9WMR3); experiment: DnaB intein splicing inhibitors, dose response, biochemical, cell-free fluorescence (AID 449749); format: functional
T3 sequence (P9WMR3 whole entry): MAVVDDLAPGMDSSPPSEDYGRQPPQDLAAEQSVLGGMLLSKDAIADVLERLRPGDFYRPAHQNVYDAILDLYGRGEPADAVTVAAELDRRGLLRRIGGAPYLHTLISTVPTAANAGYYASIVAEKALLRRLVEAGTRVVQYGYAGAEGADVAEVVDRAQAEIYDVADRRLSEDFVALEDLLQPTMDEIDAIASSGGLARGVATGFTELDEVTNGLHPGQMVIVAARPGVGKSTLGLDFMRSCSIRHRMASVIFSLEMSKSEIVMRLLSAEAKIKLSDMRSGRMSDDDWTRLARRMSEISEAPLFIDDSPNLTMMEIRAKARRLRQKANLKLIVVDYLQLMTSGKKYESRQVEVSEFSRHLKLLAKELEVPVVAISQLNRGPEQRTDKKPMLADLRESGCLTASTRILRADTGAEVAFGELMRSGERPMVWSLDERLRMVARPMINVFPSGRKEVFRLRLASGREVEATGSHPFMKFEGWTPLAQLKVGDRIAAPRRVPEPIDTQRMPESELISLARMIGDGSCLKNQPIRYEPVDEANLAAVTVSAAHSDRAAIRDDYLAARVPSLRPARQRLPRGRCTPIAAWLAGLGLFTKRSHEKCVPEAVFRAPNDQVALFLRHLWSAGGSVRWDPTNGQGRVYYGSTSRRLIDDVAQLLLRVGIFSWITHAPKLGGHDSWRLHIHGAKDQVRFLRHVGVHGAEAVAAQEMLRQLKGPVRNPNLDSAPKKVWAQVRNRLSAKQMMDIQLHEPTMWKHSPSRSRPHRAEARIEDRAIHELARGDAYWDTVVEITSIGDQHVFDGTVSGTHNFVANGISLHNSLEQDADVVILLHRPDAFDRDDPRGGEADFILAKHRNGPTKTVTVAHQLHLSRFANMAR

H4 = experiment: Luminescence Cell-Based Dose Response HTS to Identify Activators of 5'UTR Stem-Loop Driven Prion Protein mRNA Translation in H4 Neuroglioblastoma Cells. [Related pubchem assays: 1829 (Project Summary), 1814 (Primary HTS)]; format: functional; conditions: Homo sapiens
[16] = Luminescence Cell-Based Dose Response HTS to Identify Activators of Luciferase Translation or Activity in H4 […] Cells. [Related pubchem assays: 1829 (Project Summary), 1814 (Primary HTS)]; format: functional
[17] = Trypanosoma cruzi growth suppression in host cells – NIH3T3 host cells, beta-gal luminescence, confirmation (AID 2044); format: functional, cell-based;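 also: intracellular parasites grown in NIH/3T3 mouse fibroblasts as host cells; luminescent beta-galactosidase reporter signal from transgenic T. cruzi replicating inside host cells; inhibitors lower the luminescence signal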
[18] = NIH3T3 cell viability loss – ATP luminescence, mouse fibroblasts, counter-screen, dose response (AID 2010); format: functional, cell-based;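 also: cells exposed to compound for about 90 hours before reading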

Sequence of Luciferin 4-monooxygenase (P08659 whole entry): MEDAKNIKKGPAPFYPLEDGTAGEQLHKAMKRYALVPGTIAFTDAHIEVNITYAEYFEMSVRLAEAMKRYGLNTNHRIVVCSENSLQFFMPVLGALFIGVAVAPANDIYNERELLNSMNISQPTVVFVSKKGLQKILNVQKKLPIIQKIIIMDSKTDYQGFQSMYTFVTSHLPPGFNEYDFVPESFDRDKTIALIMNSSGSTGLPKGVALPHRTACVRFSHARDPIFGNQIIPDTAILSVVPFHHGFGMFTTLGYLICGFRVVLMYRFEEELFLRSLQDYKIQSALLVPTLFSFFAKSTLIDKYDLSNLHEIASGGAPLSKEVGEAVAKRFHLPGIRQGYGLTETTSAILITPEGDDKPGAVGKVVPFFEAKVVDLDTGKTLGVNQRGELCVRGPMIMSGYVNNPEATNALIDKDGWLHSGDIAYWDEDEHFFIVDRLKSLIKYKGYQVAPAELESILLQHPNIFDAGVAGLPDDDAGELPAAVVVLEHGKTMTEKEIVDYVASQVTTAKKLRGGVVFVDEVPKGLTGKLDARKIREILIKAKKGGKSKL

Structure (SMILES): COc1ccc(C(=O)Nc2cccc(C)c2)cc1
- EC50 [1]: 7.08 µM (active)
- EC50 [2]: 16.1 µM (active)

Structure (SMILES): CCNS(=O)(=O)c1ccc(NC(=O)c2cccnc2)cc1
- EC50 [3]: > 160 µM (inactive)
- EC50 [1]: > 112 µM (not active)
- EC50 [2]: > 112 µM (not active)
- EC50 [4]: > 38 µM (not active)

Structure (SMILES): COC(=O)c1ccccc1NC(=S)NC(=O)COc1ccccc1
- IC50 [5]: 6.37 µM (not active)

Structure (SMILES): CC(C)CC(C(=O)OCC(=O)c1c(N)n(C)c(=O)n(C)c1=O)N1C(=O)C2CC=CCC2C1=O (stereo not drawn)
- IC50 [5]: 12.9 µM (not active)

Structure (SMILES): Cn1c(=O)[nH]c(=O)c2[nH]c(N(Cc3ccccc3)Cc3ccccc3)nc21
- IC50 [5]: > 50 µM (not active)

Structure (SMILES): Cn1c(NC(=O)Cc2cccs2)cc(=O)n(C)c1=O
- EC50 [1]: > 112 µM (not active)
- EC50 [2]: > 112 µM (not active)

Structure (SMILES): CC(=O)c1ccc(N=C(S)N(Cc2ccccc2)C(C)C2CC2)cc1 (stereo not drawn)
- IC50 [5]: 23.9 µM (not active)

Structure (SMILES): CC1N(O)C(c2ccc(Cl)cc2Cl)N(O)C1(C)C (stereo not drawn)
- EC50 [1]: > 112 µM (not active)
- EC50 [2]: > 112 µM (not active)

Structure (SMILES): O=C(NCc1cccc(Cl)c1)c1ccc2c(c1)SC1=NS(=O)(=O)CCN12
- IC50 [5]: 14.8 µM (not active)

Structure (SMILES): CC(C)(C)NC(=O)c1cc(C(C)(C)C)c(O)c(C(C)(C)C)c1
- IC50 [5]: 3.38 µM (not active)

Structure (SMILES): COc1ccc(NC(=O)CN(c2ccccc2)S(=O)(=O)c2ccccc2)c(OC)c1
- IC50 [5]: 49.3 µM (not active)

Structure (SMILES): c1ccc(CCn2nnnc2CN2CCN(C3CCCC3)CC2)cc1
- IC50 [5]: > 50 µM (not active)

Structure (SMILES): N#Cc1ccsc1NC(=O)CCc1ccccc1
- EC50 (BJ [6]): 18.1 µM (active)
- EC50 [7]: 19.3 µM (active)
- EC50 (BJ [8]): 15.7 µM (active)
- EC50 (BJ [9]): 34.1 µM (active)

Structure (SMILES): O=[N+]([O-])c1ccc2c(c1)C(N1CCOCC1)/C(=C/COc1ccc(Cl)cc1Cl)O2 (stereo not drawn)
- IC50 [5]: 5.41 µM (not active)

Structure (SMILES): COC(=O)c1cc2n(n1)CCN(Cc1ccc(F)cc1)C2=O
- EC50 [1]: > 112 µM (not active)
- EC50 [2]: > 112 µM (not active)

Structure (SMILES): COc1cc2c(cc1OC)-c1cc(Nc3ccc(C)cc3)nc(=O)n1CC2
- EC50 [1]: 3.46 µM (active)
- EC50 [2]: > 112 µM (not active)

Structure (SMILES): CC(Sc1ccccc1)C(=O)Nc1ccccc1C(=O)N1CCOCC1 (stereo not drawn)
- EC50 [1]: > 112 µM (not active)
- EC50 [2]: > 112 µM (not active)

Structure (SMILES): CC(=O)Nc1cccc(NC(=O)C(=O)Nc2ccc3c(c2)N(C(=O)C2CC2)CCC3)c1
- EC50 [1]: > 112 µM (not active)
- EC50 [2]: 31 µM (active)

Structure (SMILES): CCCCOc1ccccc1NC(=O)Cn1c(-c2nonc2N)nc2ccccc21
- EC50 (BJ [6]): 3.73 µM (inconclusive)
- EC50 [7]: 4.23 µM (active)
- EC50 (BJ [8]): 3.38 µM (active)
- EC50 (BJ [9]): 7.06 µM (active)
- EC50 [10]: 7.21 µM (inconclusive)
- EC50 [11]: 8.28 µM (active)
- EC50 [12]: 0.163 µM (active)
- EC50 [13]: 2.49 µM (active)
- EC50 [14]: 0.254 µM (active)

Structure (SMILES): N#CC1=C(N)Oc2[nH]nc(-c3cccs3)c2C1c1ccsc1 (stereo not drawn)
- EC50 (Protein RecA): 0.672 µM (active)
- AC50 [15]: 2.2 µM (active)

Structure (SMILES): Cc1c(C(=O)NCc2ccoc2)oc2ccc3c(c12)C(=O)CC(C)(C)O3
- EC50 (H4): > 120 µM (not active)
- EC50 [16]: 33.7 µM (active)

Structure (SMILES): O=C(CSc1ncc(C(F)(F)F)cc1Cl)N1CCN(S(=O)(=O)c2ccc(Cl)cc2)CC1
- IC50 [5]: 4.37 µM (not active)

Structure (SMILES): O=C(Oc1ccc(Br)cc1)C1CC(=O)N(c2ccc(F)cc2)C1 (stereo not drawn)
- EC50 (Protein RecA): 11.8 µM (active)
- AC50 [15]: 7.12 µM (active)

Structure (SMILES): CCOC(=O)C1=C(CNCCc2ccc(Cl)cc2)NC(=O)NC1c1ccc2c(c1)OCO2 (stereo not drawn)
- EC50 [17]: 13.3 µM (active)
- IC50 [5]: > 50 µM (not active)
- EC50 [18]: > 60 µM (not active)

Structure (SMILES): COCCCNC(=O)Cn1c(=O)n(CCCCCC(=O)Nc2ccccc2)c(=O)c2sccc21
- EC50 [1]: > 112 µM (not active)
- EC50 [2]: > 112 µM (not active)

Structure (SMILES): CCCc1nn(C)c2c1C(c1cccnc1)C(C#N)=C(N)O2 (stereo not drawn)
- EC50 (Protein RecA): 3.83 µM (active)
- AC50 [15]: 6.1 µM (active)

Structure (SMILES): Cc1ccc(C)c(C2NC(=O)c3ccccc3N2)c1 (stereo not drawn)
- EC50 (BJ [6]): 18.2 µM (active)
- EC50 [7]: 19.3 µM (inconclusive)
- EC50 (BJ [8]): 9.8 µM (inconclusive)
- EC50 (BJ [9]): 93.9 µM (active)

Structure (SMILES): CN1CCN(C(=O)/C=C/c2ccc([N+](=O)[O-])o2)CC1
- EC50 (BJ [6]): > 150 µM (not active)
- EC50 [7]: > 150 µM (not active)
- EC50 (BJ [8]): 44.6 µM (active)
- EC50 (BJ [9]): > 150 µM (not active)

Structure (SMILES): NC(=O)N/N=C/c1cn(-c2ccccc2)nc1-c1cccs1
- EC50 (BJ [6]): > 150 µM (not active)
- EC50 [7]: 36 µM (active)
- EC50 (BJ [8]): 19.4 µM (active)
- EC50 (BJ [9]): > 150 µM (not active)

Structure (SMILES): COc1ccc(/C=N/Nc2nn3cnnc3c3ccccc23)cc1
- IC50 [5]: 5.99 µM (not active)

Structure (SMILES): CC(C)NC(=S)N/N=C/c1ccc2c(c1)OCCO2
- IC50 [5]: > 50 µM (not active)
